Laboratory results: US20250049885A1, “HYALURONIC ACID BINDING PEPTIDE AS A THERAPEUTIC TO CONTROL FIBROBLAST ACTIVATION AND FIBROTIC CAPSULE FORMATION” (SOUTH DAKOTA BOARD OF REGENTS, priority 2023, published 2025)
Ends that are not written are not given here.

Key:
[1] = tested on: primary dermal fibroblasts; assay: Cell morphology and alignment on functionalized surfaces (brightfield); format: cell-based, human; details: vs cells on the other surface groups
Procedure: FIGS. 3A-B depicts primary dermal fibroblasts seeded at 50.000 cells/154 mm^2 and incubated for 10 days on HABP and Scrambled HABP functionalized surfaces. APTMS surfaces were treated with 2% APTMS only and Untreated surfaces had no treatment other than PBS rinse. […] Decellularization occurred on Day 11. (Representative of average and standard deviation; N=3; scale bar represents 100 μm). […] (Representative of average and standard deviation; N=6).
APTMS functionalized and untreated experimental groups were established.
Untreated and HABP functionalized surfaces did have some fibroblasts with higher levels of alignment, but the majority of fibroblast cells in those groups maintained a similar distribution of alignment to the APTMS cultures.

[2] = tested on: Col1 fibers deposited by dermal fibroblasts; assay: Type I Collagen immunostaining and fiber analysis (CT-Fire); format: cell-based, human; details: p-value<0.01
Description: FIGS. 5A-G show Type I Collagen immunostaining results. FIG. 5A is a color cell culture stain: Fluorescent images of Col1 at 20× magnification. The scale bar represents 100 μm. FIG. 5B is a color image showing CT-Fire overlays of Col1 fibers from the above images, where different fiber characteristics are shown via different coloration. FIG. 5C is a graphical representation of the distribution of the number of Col1 fibers in each treatment group. FIG. 5D is a graphical representation of the distribution of Col1 fiber lengths in each treatment group. There is a notable difference between the APTMS group and the Untreated and HABP groups. FIG. 5E is a graphical representation of the measurement of fiber straightness. […] The closer the value is to one, the straighter individual fibers within the treatment groups are. FIG. 5F is a graphical representation of the Col1 fiber width comparison between treatment groups. […]
Immunostaining was done using α-SMA (D4K9N, Cell Signal) and Type I collagen primary antibodies. […] After this point, all further staining was conducted in the dark to preserve fluorescence. […]
Immunostaining for Type I Collagen (Col1) was done to determine the impact of the HABP surface treatment on ECM formation. […] Col1 fibers were analyzed and the analysis found significant differences in fiber angle, straightness, and width.

[3] = tested on: normal human adult primary dermal fibroblasts; assay: Live/Dead fluorescent staining of fibroblasts cultured on functionalized surfaces; format: cell-based
Procedure: (§1) FIGS. 2A-C depict assessment of the cytocompatibility of the peptide treated surfaces using Live/Dead and PrestoBlue assays. Presto Blue assay is a measure of cellular metabolic activity. FIG. 2A is a color image of a cell culture: Calcein-AM (green) and Propidium Iodide (red) were used to stain for live and dead cells respectively.
(§2) Surface functionalization was done with 2% APTMS and 1 mM HABP. 2% APTMS (in 2-propanol) was treated on the surface for 6 hours in a wet chamber at room temperature. Following the end of the culture period, three washes with DI H2O were used to remove the residual APTMS. A 1 mM HABP in DI H2O solution was added to the surface and left overnight at 4° C. in the wet chamber. After the peptide treatment is completed, the surfaces were rinsed 5 times with PBS for 5 minutes each. These functionalized surfaces were used for HA binding verification and cell seeding experiments. Two other experimental groups were established: one with only the APTMS treatment, and one with no surface treatment (Table 2).
(§3) Human primary dermal fibroblasts (HDFs) were cultured in a culture media consisting of DMEM, 10% fetal bovine serum (FBS), and 1% penicillin-streptomycin (10,000 IU/mL). The cells were rinsed with warm 1×PBS to remove any traces of FBS from the surface, and a 0.25% trypsin/EDTA treatment was used to detach the cells from the culture flask at 37° C. for 5 minutes. 4 mL of fresh media was added to the cells to inhibit the trypsin, and the suspended cells were withdrawn from the flask, counted using a hemocytometer, and added to a 15 ml centrifuge tube. The cells were centrifuged for 5 minutes at 1500 rpms, and the media was withdrawn and replaced with a calculated amount of fresh media in which the cells were resuspended. The cells were added to the functionalized MatTek surfaces, and after 6 hours, 2 mL of media containing 100 μg/mL ascorbic acid was added. The cells were cultured for 48-96 hours before further experimentation was conducted. […]

[4] = as above; format: cell-based, human; details: human; fibroblasts cultured on functionalized surface; read-out: Cell viability (Live/Dead)
Procedure: as §1, §2, §3

| Compound | Cell morphology [1] | Col1 fiber width narrower than untreated cultures [2] | Cell viability vs control groups (Live/Dead) ([3]; HABP vs APTMS treated and untreated surfaces) | Cell viability (Live/Dead) ([3]; fibroblasts cultured on functionalized surface) | viability [4] |
| --- | --- | --- | --- | --- | --- |
| CO[Si](CCCN)(OC)OC [APTMS, 3-aminopropyltrimethoxysilane] | slightly stressed morphology | 5% | – | – | – |
| GAHWQFNALTVR [HABP, GAHWQFNALTVR] | – | – | no significant difference | 98.9% | 98.9% |
